ChEMBL document CHEMBL1909533, “Micelles catalyzed chemoselective synthesis 'in water' and biological evaluation of oxygen containing hetero-1,4-naphthoquinones as potential antifungal agents” (2011)
In brackets after ≈: the same amount, converted by molar mass.

How the values were obtained:
Type in all cases: functional
Pseudomonas aeruginosa = assay: Antibacterial activity against Pseudomonas aeruginosa by micro-broth dilution method
Escherichia coli = assay: Antibacterial activity against Escherichia coli by micro-broth dilution method
Staphylococcus aureus = assay: Antibacterial activity against Staphylococcus aureus ATCC 25923 by micro-broth dilution method
Klebsiella pneumoniae = assay: Antibacterial activity against Klebsiella pneumoniae ATCC 27736 by micro-broth dilution method
Cryptococcus neoformans [1] = assay: Antifungal activity against Cryptococcus neoformans by broth microdilution method
Candida parapsilosis [2] = assay: Antifungal activity against Candida parapsilosis by broth microdilution method; conditions: Lodderomyces parapsilosis
Aspergillus fumigatus = assay: Antifungal activity against Aspergillus fumigatus by broth microdilution method
Sporothrix schenckii = assay: Antifungal activity against Sporothrix schenckii by broth microdilution method
Candida albicans [3] = assay: Antifungal activity against Candida albicans by broth microdilution method
[4] = system: Trichophyton mentagrophytes; assay: Antifungal activity against Trichophyton mentagrophytes by broth microdilution method
Candida albicans [5] = assay: Ratio of miconazole MIC50 to compound MIC50 for Candida albicans
[6] = system: Trichophyton mentagrophytes; assay: Ratio of fluconazole MIC50 to compound MIC50 for Trichophyton mentagrophytes
[7] = system: Trichophyton mentagrophytes; assay: Ratio of amphotericin-B MIC50 to compound MIC50 for Trichophyton mentagrophytes
Cryptococcus neoformans [8] = assay: Ratio of miconazole MIC50 to compound MIC50 for Cryptococcus neoformans
Candida parapsilosis [9] = assay: Ratio of 2-chloro-3-(4-hydroxyphenylamino)naphthalene-1,4-dione MIC50 to compound MIC50 for Candida parapsilosis
Candida parapsilosis [10] = assay: Ratio of 2-Chloro-3-phenylsulfanyl-[1,4]naphthoquinone MIC50 to compound MIC50 for Candida parapsilosis

Compound | MIC (Pseudomonas aeruginosa) [µg/mL] | MIC (Escherichia coli) [µg/mL] | MIC (Staphylococcus aureus) [µg/mL] | MIC (Klebsiella pneumoniae) [µg/mL] | MIC (Cryptococcus neoformans [1]) [µg/mL] | MIC (Candida parapsilosis [2]) [µg/mL] | MIC (Aspergillus fumigatus) [µg/mL] | MIC (Sporothrix schenckii) [µg/mL] | MIC (Candida albicans [3]) [µg/mL] | MIC [4] [µg/mL] | Ratio (Candida albicans [5]) | Ratio [6] | Ratio [7] | Ratio (Cryptococcus neoformans [8]) | Ratio (Candida parapsilosis [9]) | Ratio (Candida parapsilosis [10])
GENTAMICIN | 0.39 | 0.18 | 0.78 | 0.78 | – | – | – | – | – | – | – | – | – | – | – | –
OC(Cn1cncn1)(Cn1cncn1)c1ccc(F)cc1F [FLUCONAZOLE] | – | – | – | – | 0.5 (≈ 1.63 µM) | 1 (≈ 3.27 µM) | 2 (≈ 6.53 µM) | 2 (≈ 6.53 µM) | 1 (≈ 3.27 µM) | 1.56 (≈ 5.09 µM) | – | – | – | – | – | –
O=C1C(Cl)=C(Oc2cccc3ccccc23)C(=O)c2ccccc21 | > 50 | 50 (≈ 149 µM) | 25 (≈ 74.7 µM) | > 50 | 25 (≈ 74.7 µM) | 12.5 (≈ 37.3 µM) | > 50 | 1.56 (≈ 4.66 µM) | 12.5 (≈ 37.3 µM) | 1.56 (≈ 4.66 µM) | 2 | – | – | – | – | –
Cc1ccc(OC2=C(Sc3ccc(C)cc3)C(=O)c3ccccc3C2=O)cc1 | > 50 | > 50 | 12.5 (≈ 32.3 µM) | > 50 | 12.5 (≈ 32.3 µM) | 25 (≈ 64.7 µM) | > 50 | 3.12 (≈ 8.07 µM) | 25 (≈ 64.7 µM) | 1.56 (≈ 4.04 µM) | – | – | – | – | – | –
NCC[C@H](O)C(=O)N[C@@H]1C[C@H](N)[C@@H](O[C@H]2O[C@H](CN)[C@@H](O)[C@H](O)[C@H]2O)[C@H](O)[C@H]1O[C@H]1O[C@H](CO)[C@@H](O)[C@H](N)[C@H]1O [AMIKACIN] | 1 (≈ 1.71 µM) | 1 (≈ 1.71 µM) | 16 (≈ 27.3 µM) | 2 (≈ 3.42 µM) | – | – | – | – | – | – | – | – | – | – | – | –
O=C1C(Cl)=C(Oc2ccccc2OC2=C(Cl)C(=O)c3ccccc3C2=O)C(=O)c2ccccc21 | > 50 | > 50 | > 50 | > 50 | > 50 | 50 (≈ 102 µM) | > 50 | 25 (≈ 50.9 µM) | 50 (≈ 102 µM) | 50 (≈ 102 µM) | – | – | – | – | – | –
C[C@@H]1[C@H](O)[C@@H](C)/C=C/C=C/C=C/C=C/C=C/C=C/C=C/[C@H](O[C@@H]2O[C@H](C)[C@@H](O)[C@H](N)[C@@H]2O)C[C@@H]2O[C@](O)(C[C@@H](O)C[C@@H](O)[C@H](O)CC[C@@H](O)C[C@@H](O)CC(=O)O[C@H]1C)C[C@H](O)[C@H]2C(=O)O [AMPHOTERICIN B] | – | – | – | – | 0.78 (≈ 0.844 µM) | – | – | – | 0.39 (≈ 0.422 µM) | 1.56 (≈ 1.69 µM) | – | – | – | – | – | –
Clc1ccc(COC(Cn2ccnc2)c2ccc(Cl)cc2Cl)c(Cl)c1 (stereo unspecified) [MICONAZOLE] | – | – | – | – | 12.5 (≈ 30 µM) | – | 12.5 (≈ 30 µM) | – | 25 (≈ 60.1 µM) | < 0.78 | – | – | – | – | – | –
O=C1C(Cl)=C(Oc2ccc3ccccc3c2)C(=O)c2ccccc21 | > 50 | > 50 | > 50 | > 50 | > 50 | > 50 | 50 (≈ 149 µM) | > 50 | > 50 | 50 (≈ 149 µM) | – | – | – | – | – | –
Cc1ccc(OC2=C(Sc3ccccc3)C(=O)c3ccccc3C2=O)cc1 | > 50 | > 50 | 25 (≈ 67.1 µM) | > 50 | 12.5 (≈ 33.6 µM) | 12.5 (≈ 33.6 µM) | > 50 | 1.56 (≈ 4.19 µM) | 25 (≈ 67.1 µM) | 0.78 (≈ 2.09 µM) | – | 2 | 2 | – | – | –
O=C1C(Cl)=C(Oc2ccccc2)C(=O)c2ccccc21 | > 50 | > 50 | 50 (≈ 176 µM) | > 50 | 6.25 (≈ 22 µM) | 12.5 (≈ 43.9 µM) | 50 (≈ 176 µM) | 3.12 (≈ 11 µM) | 12.5 (≈ 43.9 µM) | 0.78 (≈ 2.74 µM) | – | 2 | 2 | 2 | – | –
Cc1ccc(OC2=C(Cl)C(=O)c3ccccc3C2=O)cc1 | > 50 | 25 (≈ 83.7 µM) | 12.5 (≈ 41.8 µM) | > 50 | 12.5 (≈ 41.8 µM) | 3.12 (≈ 10.4 µM) | 25 (≈ 83.7 µM) | 0.78 (≈ 2.61 µM) | 6.25 (≈ 20.9 µM) | 1.56 (≈ 5.22 µM) | 4 | – | – | – | 2 | 2
Cc1cc(C)cc(OC2=C(Cl)C(=O)c3ccccc3C2=O)c1 | > 50 | 50 (≈ 160 µM) | 25 (≈ 79.9 µM) | > 50 | 12.5 (≈ 40 µM) | 3.12 (≈ 9.98 µM) | 50 (≈ 160 µM) | 1.56 (≈ 4.99 µM) | 12.5 (≈ 40 µM) | 1.56 (≈ 4.99 µM) | – | – | – | – | 2 | 2
Cc1cc2c(cc1OC1=C(O)C(=O)c3ccccc3C1=O)C(=O)c1ccccc1C2=O [NEWBOULDIAQUINONE A] | – | – | – | – | – | – | – | – | 4.88 (≈ 11.9 µM) | – | – | – | – | – | – | –
COc1ccc(OC2=C(Cl)C(=O)c3ccccc3C2=O)cc1 | > 50 | > 50 | 50 (≈ 159 µM) | > 50 | 12.5 (≈ 39.7 µM) | 6.25 (≈ 19.9 µM) | 50 (≈ 159 µM) | 1.56 (≈ 4.96 µM) | 12.5 (≈ 39.7 µM) | 1.56 (≈ 4.96 µM) | 2 | – | – | – | – | –
NC[C@H]1O[C@H](O[C@H]2[C@H](O)[C@@H](O[C@H]3O[C@H](CO)[C@@H](O)[C@H](N)[C@H]3O)[C@H](N)C[C@@H]2N)[C@H](O)[C@@H](O)[C@@H]1O [KANAMYCIN] | 32 (≈ 66 µM) | 16 (≈ 33 µM) | 2 (≈ 4.13 µM) | > 128 | – | – | – | – | – | – | – | – | – | – | – | –
Cc1ccc(OC2=C(Nc3ccccc3)C(=O)c3ccccc3C2=O)cc1 | > 50 | 50 (≈ 141 µM) | 50 (≈ 141 µM) | > 50 | 12.5 (≈ 35.2 µM) | 12.5 (≈ 35.2 µM) | 50 (≈ 141 µM) | 1.56 (≈ 4.39 µM) | 12.5 (≈ 35.2 µM) | 0.78 (≈ 2.19 µM) | – | 2 | 2 | – | – | –
O=C1C(Cl)=C(Nc2ccc(O)cc2)C(=O)c2ccccc21 | – | – | – | – | 0.78 (≈ 2.6 µM) | 6.25 (≈ 20.9 µM) | 3.12 (≈ 10.4 µM) | 1.56 (≈ 5.2 µM) | 1.56 (≈ 5.2 µM) | 1.56 (≈ 5.2 µM) | – | – | – | – | – | –
NC[C@H]1O[C@H](O[C@H]2[C@H](O)[C@@H](O[C@H]3O[C@H](CO)[C@@H](O)[C@H](N)[C@H]3O)[C@H](N)C[C@@H]2N)[C@H](N)C[C@@H]1O [TOBRAMYCIN] | 1 (≈ 2.14 µM) | 0.5 (≈ 1.07 µM) | 0.25 (≈ 0.535 µM) | 4 (≈ 8.56 µM) | – | – | – | – | – | – | – | – | – | – | – | –
NYSTATIN | – | – | – | – | 3.5 | – | – | 13.2 | 7.8 | – | – | – | – | – | – | –
O=c1c2oc3ccccc3oc=2c(=O)c2ccccc12 | > 50 | 50 (≈ 189 µM) | 25 (≈ 94.6 µM) | > 50 | 12.5 (≈ 47.3 µM) | 3.12 (≈ 11.8 µM) | 25 (≈ 94.6 µM) | 0.78 (≈ 2.95 µM) | 6.25 (≈ 23.7 µM) | 1.56 (≈ 5.9 µM) | 4 | – | – | – | 2 | 2
O=C1C=C(Sc2ccccc2)C(=O)c2ccccc21 | – | – | – | – | 1.56 (≈ 5.86 µM) | – | 25 (≈ 93.9 µM) | – | 12.5 (≈ 46.9 µM) | 0.78 (≈ 2.93 µM) | – | – | – | – | – | –
O=C1C(Cl)=C(Oc2ccc(Cl)cc2)C(=O)c2ccccc21 | > 50 | > 50 | 50 (≈ 157 µM) | > 50 | 12.5 (≈ 39.2 µM) | 6.25 (≈ 19.6 µM) | > 50 | 1.56 (≈ 4.89 µM) | 12.5 (≈ 39.2 µM) | 1.56 (≈ 4.89 µM) | 2 | – | – | – | – | –
